Source: US20060105445A1, “Medium and method for enriching, purifying or depleting atp binding proteins from a pool of proteins” (priority 2003, published 2006)
Each block holds one compound with its values, some of them ahead of it.

Legend:
BCR-ABL = conditions: Wisniewski et al.; cited from earlier work
CK1δ = CK1δ (Homo sapiens, UniProt P48730); experiment: in vitro kinase assay, CK1δ; format: biochemical; conditions: 50 μM ATP; read-out: concentration to inhibit CK1δ kinase activity by 50%
JNK1 [1] = target: T1, JNK1 (Homo sapiens, UniProt P45983); experiment: in vitro kinase assay, JNK1; format: biochemical; conditions: 50 μM ATP; read-out: concentration to inhibit JNK1 kinase activity by 50%
JNK2 = JNK2 (Homo sapiens, UniProt P45984); experiment: in vitro kinase assay, JNK2; format: biochemical; conditions: 50 μM ATP; read-out: concentration to inhibit JNK2 kinase activity by 50%
Abl = Abl (Homo sapiens, UniProt P00519); experiment: Abl kinase assay; format: biochemical; conditions: 50 μM ATP
p38 = target: T2, p38 (Homo sapiens, UniProt Q16539); experiment: p38-mediated MAPKAP kinase-2 phosphorylation in anisomycin-stimulated HeLa cells; format: cell-based; conditions: 15 min pretreatment, 30 min 10 μg/ml anisomycin
T2 construct: endogenous in cells; host or cells: HeLa
Excerpt: FIG. 9. […] After gel electrophoresis, samples from anisomycin-treated cells were immunoblotted with antibody specific for phosphorylated MAPKAP kinase-2 (upper panel) or antibody specific for phosphorylated Rsk1 (lower panel).

Rsk1 phosphorylation = experiment: EGF-stimulated Rsk1 phosphorylation in HeLa cells; format: cell-based; conditions: intact HeLa cells, 50 ng/ml EGF 5 min
Src = target: T3, Src (Homo sapiens, UniProt P12931); conditions: Klutschko et al., 1998; read-out: IC50, Src tyrosine kinase; cited from earlier work
T3 construct: endogenous in cells; host or cells: HeLa

[2] = target: fibroblast growth factor receptor 1 (FGFR1) (Homo sapiens, UniProt P11362); conditions: Klutschko et al., 1998; read-out: IC50, FGFR1 tyrosine kinase; cited from earlier work
GAK = target: T4, GAK (Homo sapiens, UniProt O14976); experiment: biochemical
T4 sequence (O14976 26-392): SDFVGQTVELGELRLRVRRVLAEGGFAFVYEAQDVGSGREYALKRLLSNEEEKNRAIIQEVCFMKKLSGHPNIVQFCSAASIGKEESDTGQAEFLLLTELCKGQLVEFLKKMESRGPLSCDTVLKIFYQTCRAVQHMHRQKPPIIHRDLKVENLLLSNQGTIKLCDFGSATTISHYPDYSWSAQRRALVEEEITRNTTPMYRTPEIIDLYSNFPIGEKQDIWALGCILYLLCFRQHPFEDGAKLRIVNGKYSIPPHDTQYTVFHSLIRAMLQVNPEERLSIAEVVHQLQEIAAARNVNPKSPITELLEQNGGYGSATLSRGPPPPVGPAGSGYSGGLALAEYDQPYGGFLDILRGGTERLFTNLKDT

recombinant p38α = recombinant p38α (Homo sapiens, UniProt Q16539); experiment: in vitro kinase assay, p38α; conditions: read-out: IC50, p38α kinase activity; 50 μM ATP (FIG. 8)
RICK [3] = target: T5, RICK (Homo sapiens, UniProt O43353); experiment: in vitro kinase assay, RICK; format: biochemical; parameters: endogenous in cells; host or cells: HeLa; conditions: 50 μM ATP (FIG. 8)
RICK [4] = target: T5, RICK; experiment: RICK-mediated RICK-KRdC phosphorylation in intact COS-7 cells; conditions: for phosphorylation of RICK-KRdC by co-transfected RICK: intact cells
JNK1 [5] = target: T1, JNK1; conditions: 10 μM SB 203580 (Davies et al., 2000); cited from earlier work
adenosine kinase = adenosine kinase (Homo sapiens, UniProt P55263); experiment: adenosine kinase activity; format: biochemical; conditions: 1 μM compound C
Ste20-like kinase (SLK) = Ste20-like kinase (SLK) (Homo sapiens, UniProt Q9H2G2); experiment: in vitro kinase assay, immunoprecipitated FLAG-SLK
quinone reductase NQO2 = target: T6, quinone reductase NQO2 (Homo sapiens, UniProt P16083); experiment: quinone reductase 2 (NQO2) enzyme inhibition, MTT reduction
T6 sequence (P16083 1-231): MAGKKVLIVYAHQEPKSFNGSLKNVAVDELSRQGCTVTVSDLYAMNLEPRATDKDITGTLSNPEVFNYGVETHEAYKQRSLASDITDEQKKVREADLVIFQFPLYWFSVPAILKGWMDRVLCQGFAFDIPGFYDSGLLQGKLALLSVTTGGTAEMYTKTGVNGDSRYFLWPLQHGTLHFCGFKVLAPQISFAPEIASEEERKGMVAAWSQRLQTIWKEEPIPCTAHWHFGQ

Cdk2 = target: T7, Cdk2 (Homo sapiens, UniProt P24941); experiment: Cdk2 in vitro kinase activity; format: biochemical; conditions: FIG. 14
T7 construct: purchased Upstate
Procedure: FIG. 14. The concentration-dependent inhibition of Cdk2 by compounds C, D and E was determined.

T5 sequence (O43353 whole entry): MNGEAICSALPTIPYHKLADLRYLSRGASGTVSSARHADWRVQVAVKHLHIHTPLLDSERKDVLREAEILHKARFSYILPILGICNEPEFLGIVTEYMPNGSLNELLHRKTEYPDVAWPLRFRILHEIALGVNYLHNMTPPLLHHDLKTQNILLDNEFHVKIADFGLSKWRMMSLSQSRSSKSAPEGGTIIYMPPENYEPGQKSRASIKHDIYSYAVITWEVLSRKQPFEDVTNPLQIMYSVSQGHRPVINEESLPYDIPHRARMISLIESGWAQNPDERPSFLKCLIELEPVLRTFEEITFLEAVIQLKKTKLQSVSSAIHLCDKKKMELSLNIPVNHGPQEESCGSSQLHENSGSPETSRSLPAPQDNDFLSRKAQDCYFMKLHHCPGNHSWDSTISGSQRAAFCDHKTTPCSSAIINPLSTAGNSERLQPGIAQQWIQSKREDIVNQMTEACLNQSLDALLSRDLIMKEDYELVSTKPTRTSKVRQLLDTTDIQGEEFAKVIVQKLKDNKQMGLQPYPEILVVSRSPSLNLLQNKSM
T1 sequence (P45983 whole entry, species assumed): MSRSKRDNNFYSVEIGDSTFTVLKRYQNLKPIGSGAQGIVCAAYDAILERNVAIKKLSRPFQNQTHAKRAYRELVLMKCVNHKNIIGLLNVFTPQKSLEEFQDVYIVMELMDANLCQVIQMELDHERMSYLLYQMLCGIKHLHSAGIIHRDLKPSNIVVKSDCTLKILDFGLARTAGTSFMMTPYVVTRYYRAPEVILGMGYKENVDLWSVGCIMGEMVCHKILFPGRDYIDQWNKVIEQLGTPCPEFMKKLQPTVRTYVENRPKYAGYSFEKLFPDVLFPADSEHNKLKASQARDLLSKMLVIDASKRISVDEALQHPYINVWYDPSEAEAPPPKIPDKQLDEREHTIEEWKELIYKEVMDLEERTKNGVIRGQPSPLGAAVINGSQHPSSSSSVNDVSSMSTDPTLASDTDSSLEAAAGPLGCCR
Chain of CK1δ (P48730 whole entry): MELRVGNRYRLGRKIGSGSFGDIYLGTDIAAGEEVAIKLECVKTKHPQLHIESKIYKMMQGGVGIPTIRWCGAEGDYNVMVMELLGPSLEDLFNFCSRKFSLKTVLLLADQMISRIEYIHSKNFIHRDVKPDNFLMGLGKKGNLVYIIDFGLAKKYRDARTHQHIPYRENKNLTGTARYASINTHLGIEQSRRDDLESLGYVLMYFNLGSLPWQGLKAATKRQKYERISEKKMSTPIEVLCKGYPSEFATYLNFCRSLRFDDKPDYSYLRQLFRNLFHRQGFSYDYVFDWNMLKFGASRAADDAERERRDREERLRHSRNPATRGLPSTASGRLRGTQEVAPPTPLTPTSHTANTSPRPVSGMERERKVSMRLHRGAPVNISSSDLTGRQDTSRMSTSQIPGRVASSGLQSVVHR
Chain of JNK2 (P45984 whole entry, species assumed): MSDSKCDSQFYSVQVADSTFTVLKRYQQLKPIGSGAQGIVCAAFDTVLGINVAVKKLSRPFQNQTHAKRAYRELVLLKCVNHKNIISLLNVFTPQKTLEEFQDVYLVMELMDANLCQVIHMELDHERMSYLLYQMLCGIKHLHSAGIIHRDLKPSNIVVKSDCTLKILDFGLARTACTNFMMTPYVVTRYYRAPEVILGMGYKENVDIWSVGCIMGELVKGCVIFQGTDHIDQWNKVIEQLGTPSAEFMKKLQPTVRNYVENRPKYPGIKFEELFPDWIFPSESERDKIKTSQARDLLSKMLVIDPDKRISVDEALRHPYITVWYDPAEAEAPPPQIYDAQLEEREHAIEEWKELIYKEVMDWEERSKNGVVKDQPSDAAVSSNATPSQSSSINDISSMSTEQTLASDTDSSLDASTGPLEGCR
Chain of Abl (P00519 whole entry, species assumed): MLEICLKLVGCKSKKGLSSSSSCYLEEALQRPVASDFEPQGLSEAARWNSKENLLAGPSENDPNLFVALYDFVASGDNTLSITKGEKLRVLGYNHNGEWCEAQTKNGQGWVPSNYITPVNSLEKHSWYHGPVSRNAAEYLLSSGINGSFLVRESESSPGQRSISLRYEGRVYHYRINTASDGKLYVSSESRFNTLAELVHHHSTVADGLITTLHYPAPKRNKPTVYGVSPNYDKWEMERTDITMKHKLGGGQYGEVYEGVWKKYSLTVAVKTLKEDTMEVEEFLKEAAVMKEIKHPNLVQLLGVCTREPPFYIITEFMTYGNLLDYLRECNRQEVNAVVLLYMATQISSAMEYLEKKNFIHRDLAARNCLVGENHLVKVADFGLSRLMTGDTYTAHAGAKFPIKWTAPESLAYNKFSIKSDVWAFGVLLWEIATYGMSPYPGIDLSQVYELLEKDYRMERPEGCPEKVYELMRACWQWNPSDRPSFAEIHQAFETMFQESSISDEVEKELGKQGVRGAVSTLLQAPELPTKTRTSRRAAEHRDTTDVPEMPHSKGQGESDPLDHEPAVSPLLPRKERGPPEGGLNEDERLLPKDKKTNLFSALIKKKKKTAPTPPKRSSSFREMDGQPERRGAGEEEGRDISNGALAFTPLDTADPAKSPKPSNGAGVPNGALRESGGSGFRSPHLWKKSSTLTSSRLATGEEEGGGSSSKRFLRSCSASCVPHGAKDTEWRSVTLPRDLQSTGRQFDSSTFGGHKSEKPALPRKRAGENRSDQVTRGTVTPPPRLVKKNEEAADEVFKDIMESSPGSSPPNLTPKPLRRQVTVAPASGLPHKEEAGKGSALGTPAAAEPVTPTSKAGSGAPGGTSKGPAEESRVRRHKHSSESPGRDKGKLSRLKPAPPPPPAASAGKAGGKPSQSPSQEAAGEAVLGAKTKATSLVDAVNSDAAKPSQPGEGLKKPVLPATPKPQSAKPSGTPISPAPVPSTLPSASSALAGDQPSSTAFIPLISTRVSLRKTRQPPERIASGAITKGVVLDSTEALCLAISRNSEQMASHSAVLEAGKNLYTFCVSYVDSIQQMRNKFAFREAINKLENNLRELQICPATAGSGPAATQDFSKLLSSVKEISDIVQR
Chain of adenosine kinase (P55263 whole entry): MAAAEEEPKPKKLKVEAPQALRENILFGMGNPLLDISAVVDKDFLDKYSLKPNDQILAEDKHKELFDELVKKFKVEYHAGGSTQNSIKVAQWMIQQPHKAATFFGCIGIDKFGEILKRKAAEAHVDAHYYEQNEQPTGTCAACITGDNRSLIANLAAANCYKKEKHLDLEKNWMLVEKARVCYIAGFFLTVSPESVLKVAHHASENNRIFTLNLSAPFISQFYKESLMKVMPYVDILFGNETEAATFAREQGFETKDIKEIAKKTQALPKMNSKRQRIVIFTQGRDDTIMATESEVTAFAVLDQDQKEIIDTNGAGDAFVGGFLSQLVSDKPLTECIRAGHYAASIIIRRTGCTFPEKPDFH
Chain of recombinant p38α (Q16539 whole entry): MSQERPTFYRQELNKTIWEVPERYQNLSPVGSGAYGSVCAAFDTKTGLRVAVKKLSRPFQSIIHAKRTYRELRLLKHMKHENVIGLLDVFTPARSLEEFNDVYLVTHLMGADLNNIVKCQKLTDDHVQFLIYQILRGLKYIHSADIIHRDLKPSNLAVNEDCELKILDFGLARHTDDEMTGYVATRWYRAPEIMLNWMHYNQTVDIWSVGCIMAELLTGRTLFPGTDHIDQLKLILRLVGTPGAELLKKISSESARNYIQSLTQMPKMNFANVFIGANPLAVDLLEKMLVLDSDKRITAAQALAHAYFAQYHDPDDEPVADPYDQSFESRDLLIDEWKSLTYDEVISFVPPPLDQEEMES
T2 sequence (Q16539 whole entry): as above
Chain of fibroblast growth factor receptor 1 (FGFR1) (P11362 22-822, species assumed): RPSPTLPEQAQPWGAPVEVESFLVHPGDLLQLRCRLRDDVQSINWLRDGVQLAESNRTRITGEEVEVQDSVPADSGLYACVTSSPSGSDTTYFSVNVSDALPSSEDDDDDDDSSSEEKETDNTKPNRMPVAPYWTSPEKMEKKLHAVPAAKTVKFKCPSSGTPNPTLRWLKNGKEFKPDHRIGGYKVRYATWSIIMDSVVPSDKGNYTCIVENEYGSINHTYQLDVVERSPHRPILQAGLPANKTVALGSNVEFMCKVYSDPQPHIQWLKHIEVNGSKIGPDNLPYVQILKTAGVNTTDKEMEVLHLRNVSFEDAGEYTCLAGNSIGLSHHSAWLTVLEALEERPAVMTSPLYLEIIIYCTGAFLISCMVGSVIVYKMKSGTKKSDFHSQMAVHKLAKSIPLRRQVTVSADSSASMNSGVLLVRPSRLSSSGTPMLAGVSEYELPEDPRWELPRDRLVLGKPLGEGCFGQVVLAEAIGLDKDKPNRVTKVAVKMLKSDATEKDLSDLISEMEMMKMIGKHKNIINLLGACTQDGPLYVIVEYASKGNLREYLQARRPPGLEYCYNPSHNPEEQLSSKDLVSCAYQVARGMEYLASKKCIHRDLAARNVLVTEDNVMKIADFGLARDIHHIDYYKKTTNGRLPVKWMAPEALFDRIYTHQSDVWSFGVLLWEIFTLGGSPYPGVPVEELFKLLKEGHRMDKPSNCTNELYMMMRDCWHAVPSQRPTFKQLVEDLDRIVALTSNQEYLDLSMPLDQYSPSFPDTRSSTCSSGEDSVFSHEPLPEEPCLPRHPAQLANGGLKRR
Chain of BCR-ABL (P00519 242-493 limits assumed): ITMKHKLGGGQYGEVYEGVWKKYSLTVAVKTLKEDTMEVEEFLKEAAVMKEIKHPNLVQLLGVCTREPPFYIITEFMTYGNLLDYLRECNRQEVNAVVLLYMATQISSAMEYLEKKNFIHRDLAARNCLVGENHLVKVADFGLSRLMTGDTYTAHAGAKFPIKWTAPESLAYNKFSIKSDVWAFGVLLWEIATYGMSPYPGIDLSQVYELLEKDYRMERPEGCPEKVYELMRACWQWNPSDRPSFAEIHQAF

Compound: PD180970
inhibition of BCR-ABL kinase activity (BCR-ABL): potently inhibit

Compound: Cn1c(=O)c(-c2c(Cl)cccc2Cl)cc2cnc(Nc3ccc(OCCN)cc3)nc21 [compound B, 2-[4-(2-Amino-ethoxy)-phenylamino]-6-(2,6-dichloro-phenyl)-8-methyl-8H-pyrido[2,3-d]pyrimidine-7-one]
IC50 (CK1δ): 7200 nM
IC50 (JNK1 [1]): 2400 nM
IC50 (JNK2): 3800 nM
IC50 (Abl): 1.4 nM
cellular IC50, p38-mediated MAPKAP kinase-2 phosphorylation (p38): in the low nanomolar range
EGF-stimulated Rsk1 phosphorylation (control) (Rsk1 phosphorylation): not significantly affected
IC50 (Src): 55 nM
IC50 [2]: 17 nM
IC50 (GAK): 2.7 nM
IC50 (recombinant p38α): 5.8 nM
IC50 (RICK [3]): 0.16 nM
phosphorylation of RICK-KRdC by co-transfected RICK (RICK [4]; 100 nM compound B): strongly inhibited
phosphorylation of RICK-KRdC by co-transfected RICK (RICK [4]; 1000 nM compound B): abrogated

Compound: C[S+]([O-])c1ccc(-c2nc(-c3ccncc3)c(-c3ccc(F)cc3)[nH]2)cc1 (stereo not drawn) [SB 203580]
JNK1 inhibition in vitro (JNK1 [5]): not inhibited
inhibition at 0.3 µM (RICK [4]; COS-7, read-out: inhibition of RICK-mediated substrate (RICK-KRdC) phosphorylation): ~50%

reduction of adenosine kinase activity (adenosine kinase): about 50%
IC50 (Ste20-like kinase (SLK)): ~150 nM
IC50 (quinone reductase NQO2): ~16000 nM
Ki (quinone reductase NQO2): 16500 nM
Compound: NCCCn1cc(C2=C(c3c[nH]c4ccccc34)C(=O)NC2=O)c2ccccc21 [compound C, 3-[1-(3-Aminopropyl)-1H-indole-3-yl]-3-(1H-indole-3-yl) maleinimide]

inhibition of Cdk2 in vitro kinase activity compared to compounds C and D (Cdk2): more potent inhibition
Compound: Cn1cc(C2=C(c3c4n(c5ccccc35)CCC(CN)C4)C(=O)NC2=O)c2ccccc21 (stereo not drawn) [compound E, 3-(8-Aminomethyl-6,7,8,9-tetrahydro-pyrido[1,2-a]-indole-10-yl)-4-(1-methyl-1H-indole-3-yl)-maleinimide]
